Source: patent US11192888B2, “Antibacterial compounds” (priority 2017, dated 2021)
Converted amounts (≈) assume the structure as drawn. *1 amine or outer side, *2 acyl side, *3 side chain or, on linkers, in order; H or OH if unused. Where a SMILES comes first, the peptide text is derived from it. [ ]: non-standard residue; d: D form. dAla(ψthiazole) = C[C@@H](N[*:1])c1nc(C(=O)[*:2])cs1; Trp(4-Br) = N[C@@H](Cc1c[nH]c2cccc(Br)c12)C(=O)O; Dhb = C/C=C(\N)C(=O)O; Sar = CNCC(=O)O

Columns and labels:
[1] = test system: Pseudomonas aeruginosa ATCC 27853
[2] = test system: Actinomyces viscosus DSM 43327
[3] = test system: C. difficile ATCC 43255 (aka VPI 10463; ribotype 087); experiment: Mouse model of C. difficile-associated disease; type: in vivo, C57BL/6 mice
[4] = test system: Corynebacterium striatium NCTC 764

C/C=C1\NC(=O)[C@@H](C)NC(=O)CNC(=O)[C@H](Cc2c[nH]c3cccc(Br)c23)NC(=O)[C@H](Cc2c[nH]c3ccccc23)NC(=O)c2csc(n2)[C@@H](C)NC(=O)CN(C)C1=O [Compound 10, Cyclo[D-Ala-Thz-Trp-Trp(4-Br)-Gly-D-Ala-Dhb-Sar]] (cyclo([Dhb][Sar][dAla(ψthiazole)]W[Trp(4-Br)]G[dA]))
MIC [1]: >64 µg/mL
MIC [2]: 8 µg/mL (≈ 9.01 µM)
survival to the end of the study at day-21 post-infection ([3]; 1 mg/kg): 80%
Mean survival ([3]; 1 mg/kg oral BD for 5 days): 504.00 h
survival to the end of the study at day-21 post-infection ([3]; 2.5 mg/kg): 70%
Mean survival ([3]; 2.5 mg/kg oral BD for 5 days): 504.00 h
reduction in C. difficile spore burden in the caecum vs vehicle controls ([3]; 5 mg/kg): 1.73 Log10 spore/mL
reduction in C. difficile spore burden in the colon vs vehicle controls ([3]; 5 mg/kg): 1.11 Log10 spore/mL
survival to the end of the study at day-21 post-infection ([3]; 5 mg/kg): 90%
Mean survival ([3]; 5 mg/kg oral BD for 5 days): 504.00 h
MIC [4]: >64 µg/mL
